# Results: patent US10203334B2, “Methods and compositions related to nucleic acid binding assays” (Nubad, LLC, priority 2012, dated 2019)
# Columns and labels:
# d(GGGGCCCC)2 = type: physicochemical
# Source text: (§1) The local electrostatic potential (Ψ) in the major groove is given by the following Equation 3. Ψ=−[R·T·ln 10/(NA·e)]ΔpKa Eq. (3) Where ΔpKa is the difference between the free Fluorescein-neomycin and the Fluorescein-neomycin in the presence of the electrostatic environment, R is the universal gas constant, T is the absolute temperature in kelvin, NA is the Avogadro constant, and e is the elementary charge. R=8.312 J mol−1K−1, T=298.2K, NA=6.023×10^23 and e=1.602×10^−19; Ψ is expressed in mV. Thus a shift of +1 in the value of the pKa implies an electrostatic potential of […]. […] Based on this Δpka of 0.86, the electrostatic potential of the microenvironment for the fluorescein moiety in the complex is determined to be −50.9 mV.
# (§2) Determination of the pKa was done using chemometric analysis of the absorption profiles at various pH values of the covalently attached fluorescein moiety (Kubista, M., et al., (1993) Anal. Chem. 65, 994-998, Kubista, M., et al., (1995) Anal. Chim. Acta. 302, 121-125.2, 3). The pH dependent absorption profile of free fluorescein-neomycin was first analyzed to determine its pKa. […] The electrostatic potential (P) calculated from the shift in pKa, and the ITC derived binding constant (K). Electrostatic potential experiments performed in 100 mM NaCl, 10 mM SC, 0.5 mM EDTA at 25° C. ITC experiments performed in 50 mM KCl, 10 mM SC, 0.5 mM EDTA (pH 6.0) at 25° C. […] Fluorescein-neomycin concentration was 10 μM. Table 1 represents the pKa values determined from the inflection point of the pH dependent absorbance scans of free fluorescein-neomycin, fluorescein-neomycin with one molar equivalent d(CCCCGGGG)2 and d(GGGGCCCC)2. The electrostatic potential (Y) calculated from the shift in pKa, and the ITC derived binding constant (K).
# d(CCCCGGGG)2 = type: physicochemical
# Source text: as §1, §2
# [1] = system: DNA triplex poly(dA).2poly(dT); assay: Competition dialysis; type: binding
# Source text: Disclosed is the use of fluorescent aminosugar probes such as F-neo (42a) to probe a variety of nucleic acid targets. Competition dialysis was used as a nucleic acid screening technique to illustrate the binding of F-neo (42a) to different nucleic acid structures.
# Competition dialysis studies using a fluorescein-neomycin conjugate (F-neo (42a)). […] Comparative binding of F-neo (42a) to 13 different nucleic acid structures was examined which included single strand nucleic acids [poly(dT), poly(A), poly(U)], duplexes [poly(dA).poly(dT), poly(rA).poly(dT), poly(rA).poly(rU), poly(dA).poly(rU), poly(dG).poly(dC), calf thymus], triplexes [poly(dA).2poly(dT), poly(rA).2poly(rU)], i-motif (polydC) and 16S A-site rRNA (SEQ ID No. 1). The amount of F-neo (42a) bound to each nucleic acid is shown as a bar graph in FIG. 13. Because all nucleic acids are dialyzed simultaneously in the same ligand solution, the amount of bound F-neo (42a) is directly proportional to its affinity for each nucleic acid. […] 200 μL of different nucleic acids (7.5 μM per monomeric unit of each polymer) was dialyzed for 72 h with 400 mL 100 nM ligand in 6 mM Na2HPO4, 2 mM NaH2PO4, 1 mM Na2EDTA, pH 7.0 and various Na+ concentrations as indicated.
# F-neo (42a) prefers to bind to 16S A-site rRNA yielding a bound ligand concentration of 85 nM in 100 mM Na^+, 50 nM in 150 mM Na^+, and 15 nM in 200 mM Na^+ is shown in FIG. 15. […]
# [2] = system: mitochondria ribosomal A-site (SEQ ID NO. 3); assay: Quenching of F-neo by ribosomal A-site mimics, 96-well; type: binding; conditions: 0.1 μM RNA to 0.1 μM F-neo (42a); em 535 nm, ex 485 nm; ten wells averaged
# Experimental: (§3) Disclosed is an HTS showing the difference in the binding affinity of fluorescene-neomycin (F-neo (42a)) to various synthetic RNA sequence 27 bases long designed to mimic the ribosomal A-site using a 96 well plate format and a fluorescent plate reader. Differences in binding are determined by the differential quenching of F-neo (42a) upon binding to the RNA.
# (§4) Following the SOP's established for F-neo (42a) binding to E. coli A-site, each sequence was added at 0.1 μM RNA to 0.1 μM F-neo (42a) using 100 reads/well using a Tecan Genios Pro plate reader in a 96 well Greiner black plate. The emission was measured at wavelength 535 nm, using an excitation wavelength of 485 nm. All experiments were performed in 10 mM hepes (7.0), 50 mM NaCl, and 0.4 mM EDTA.
# [3] = system: mutant mitochondria ribosomal A-site (SEQ ID NO. 4); assay: as above; type: binding; conditions: 0.1 μM RNA to 0.1 μM F-neo (42a); em 535 nm, ex 485 nm; ten wells averaged
# Experimental: as §3, §4
# [4] = system: human ribosomal A-site (SEQ ID NO. 2); assay: as above; type: binding; conditions: 0.1 μM RNA to 0.1 μM F-neo (42a); em 535 nm, ex 485 nm; ten wells averaged
# Experimental: as §3, §4
# [5] = electrostatic potential calculated from the shift in pKa
# [6] = versus free fluorescein-neomycin
smiles,measurement,setting,value
"NCC1O[C@H](OC2C(O)C(OC3C(O)[C@H](N)CC(N)[C@H]3O[C@H]3OC(CN)[C@@H](O)C(O)C3N)O[C@@H]2CSCCNC(=O)CCSCC(=O)Nc2ccc(-c3c4ccc(=O)cc-4oc4cc(O)ccc34)c(C(=O)O)c2)C(N)C(O)[C@@H]1O (some centres unmarked) [F-neo (42a), Neomycin-Fluorescein Conjugate]",Ψ (mV),d(GGGGCCCC)2; [5],−25.61 mV
same,pKa,"d(GGGGCCCC)2; one molar equivalent d(GGGGCCCC)2, 100 mM NaCl, 10 mM SC, 0.5 mM EDTA at 25° C.",7.01
same,ΔpKa,d(GGGGCCCC)2; [6],0.44
same,Ψ (mV),d(CCCCGGGG)2; [5],−15.13 mV
same,pKa,"d(CCCCGGGG)2; one molar equivalent d(CCCCGGGG)2, 100 mM NaCl, 10 mM SC, 0.5 mM EDTA at 25° C.",6.83
same,ΔpKa,d(CCCCGGGG)2; [6],0.26
same,binding to poly(dA).2poly(dT),"[1]; 100 mM Na^+, ambient temperature (˜22° C.), triplex not formed",absence of F-neo (42a) binding
same,bound drug,[1]; under these salt conditions (100-200 mM Na^+),10 to 20 nM
same,fluorescence of F-neo with RNA,[2],11987 (±445)
same,fluorescence of F-neo with RNA,[3],8515 (±230)
same,fluorescence of F-neo with RNA,[4],9503 (±208)
